From BindingDB's records for doi:10.1021/jm010294e (Novartis Institute For Biomedical Reasearch, 2001)

target: Apolipoprotein B-100 (Homo sapiens, UniProt P04114); assay: Inhibition of apolipoprotein B (apoB) secreted by human hepatoma cells (Hep G2) […]
Sequence (P04114 whole entry C1422Y): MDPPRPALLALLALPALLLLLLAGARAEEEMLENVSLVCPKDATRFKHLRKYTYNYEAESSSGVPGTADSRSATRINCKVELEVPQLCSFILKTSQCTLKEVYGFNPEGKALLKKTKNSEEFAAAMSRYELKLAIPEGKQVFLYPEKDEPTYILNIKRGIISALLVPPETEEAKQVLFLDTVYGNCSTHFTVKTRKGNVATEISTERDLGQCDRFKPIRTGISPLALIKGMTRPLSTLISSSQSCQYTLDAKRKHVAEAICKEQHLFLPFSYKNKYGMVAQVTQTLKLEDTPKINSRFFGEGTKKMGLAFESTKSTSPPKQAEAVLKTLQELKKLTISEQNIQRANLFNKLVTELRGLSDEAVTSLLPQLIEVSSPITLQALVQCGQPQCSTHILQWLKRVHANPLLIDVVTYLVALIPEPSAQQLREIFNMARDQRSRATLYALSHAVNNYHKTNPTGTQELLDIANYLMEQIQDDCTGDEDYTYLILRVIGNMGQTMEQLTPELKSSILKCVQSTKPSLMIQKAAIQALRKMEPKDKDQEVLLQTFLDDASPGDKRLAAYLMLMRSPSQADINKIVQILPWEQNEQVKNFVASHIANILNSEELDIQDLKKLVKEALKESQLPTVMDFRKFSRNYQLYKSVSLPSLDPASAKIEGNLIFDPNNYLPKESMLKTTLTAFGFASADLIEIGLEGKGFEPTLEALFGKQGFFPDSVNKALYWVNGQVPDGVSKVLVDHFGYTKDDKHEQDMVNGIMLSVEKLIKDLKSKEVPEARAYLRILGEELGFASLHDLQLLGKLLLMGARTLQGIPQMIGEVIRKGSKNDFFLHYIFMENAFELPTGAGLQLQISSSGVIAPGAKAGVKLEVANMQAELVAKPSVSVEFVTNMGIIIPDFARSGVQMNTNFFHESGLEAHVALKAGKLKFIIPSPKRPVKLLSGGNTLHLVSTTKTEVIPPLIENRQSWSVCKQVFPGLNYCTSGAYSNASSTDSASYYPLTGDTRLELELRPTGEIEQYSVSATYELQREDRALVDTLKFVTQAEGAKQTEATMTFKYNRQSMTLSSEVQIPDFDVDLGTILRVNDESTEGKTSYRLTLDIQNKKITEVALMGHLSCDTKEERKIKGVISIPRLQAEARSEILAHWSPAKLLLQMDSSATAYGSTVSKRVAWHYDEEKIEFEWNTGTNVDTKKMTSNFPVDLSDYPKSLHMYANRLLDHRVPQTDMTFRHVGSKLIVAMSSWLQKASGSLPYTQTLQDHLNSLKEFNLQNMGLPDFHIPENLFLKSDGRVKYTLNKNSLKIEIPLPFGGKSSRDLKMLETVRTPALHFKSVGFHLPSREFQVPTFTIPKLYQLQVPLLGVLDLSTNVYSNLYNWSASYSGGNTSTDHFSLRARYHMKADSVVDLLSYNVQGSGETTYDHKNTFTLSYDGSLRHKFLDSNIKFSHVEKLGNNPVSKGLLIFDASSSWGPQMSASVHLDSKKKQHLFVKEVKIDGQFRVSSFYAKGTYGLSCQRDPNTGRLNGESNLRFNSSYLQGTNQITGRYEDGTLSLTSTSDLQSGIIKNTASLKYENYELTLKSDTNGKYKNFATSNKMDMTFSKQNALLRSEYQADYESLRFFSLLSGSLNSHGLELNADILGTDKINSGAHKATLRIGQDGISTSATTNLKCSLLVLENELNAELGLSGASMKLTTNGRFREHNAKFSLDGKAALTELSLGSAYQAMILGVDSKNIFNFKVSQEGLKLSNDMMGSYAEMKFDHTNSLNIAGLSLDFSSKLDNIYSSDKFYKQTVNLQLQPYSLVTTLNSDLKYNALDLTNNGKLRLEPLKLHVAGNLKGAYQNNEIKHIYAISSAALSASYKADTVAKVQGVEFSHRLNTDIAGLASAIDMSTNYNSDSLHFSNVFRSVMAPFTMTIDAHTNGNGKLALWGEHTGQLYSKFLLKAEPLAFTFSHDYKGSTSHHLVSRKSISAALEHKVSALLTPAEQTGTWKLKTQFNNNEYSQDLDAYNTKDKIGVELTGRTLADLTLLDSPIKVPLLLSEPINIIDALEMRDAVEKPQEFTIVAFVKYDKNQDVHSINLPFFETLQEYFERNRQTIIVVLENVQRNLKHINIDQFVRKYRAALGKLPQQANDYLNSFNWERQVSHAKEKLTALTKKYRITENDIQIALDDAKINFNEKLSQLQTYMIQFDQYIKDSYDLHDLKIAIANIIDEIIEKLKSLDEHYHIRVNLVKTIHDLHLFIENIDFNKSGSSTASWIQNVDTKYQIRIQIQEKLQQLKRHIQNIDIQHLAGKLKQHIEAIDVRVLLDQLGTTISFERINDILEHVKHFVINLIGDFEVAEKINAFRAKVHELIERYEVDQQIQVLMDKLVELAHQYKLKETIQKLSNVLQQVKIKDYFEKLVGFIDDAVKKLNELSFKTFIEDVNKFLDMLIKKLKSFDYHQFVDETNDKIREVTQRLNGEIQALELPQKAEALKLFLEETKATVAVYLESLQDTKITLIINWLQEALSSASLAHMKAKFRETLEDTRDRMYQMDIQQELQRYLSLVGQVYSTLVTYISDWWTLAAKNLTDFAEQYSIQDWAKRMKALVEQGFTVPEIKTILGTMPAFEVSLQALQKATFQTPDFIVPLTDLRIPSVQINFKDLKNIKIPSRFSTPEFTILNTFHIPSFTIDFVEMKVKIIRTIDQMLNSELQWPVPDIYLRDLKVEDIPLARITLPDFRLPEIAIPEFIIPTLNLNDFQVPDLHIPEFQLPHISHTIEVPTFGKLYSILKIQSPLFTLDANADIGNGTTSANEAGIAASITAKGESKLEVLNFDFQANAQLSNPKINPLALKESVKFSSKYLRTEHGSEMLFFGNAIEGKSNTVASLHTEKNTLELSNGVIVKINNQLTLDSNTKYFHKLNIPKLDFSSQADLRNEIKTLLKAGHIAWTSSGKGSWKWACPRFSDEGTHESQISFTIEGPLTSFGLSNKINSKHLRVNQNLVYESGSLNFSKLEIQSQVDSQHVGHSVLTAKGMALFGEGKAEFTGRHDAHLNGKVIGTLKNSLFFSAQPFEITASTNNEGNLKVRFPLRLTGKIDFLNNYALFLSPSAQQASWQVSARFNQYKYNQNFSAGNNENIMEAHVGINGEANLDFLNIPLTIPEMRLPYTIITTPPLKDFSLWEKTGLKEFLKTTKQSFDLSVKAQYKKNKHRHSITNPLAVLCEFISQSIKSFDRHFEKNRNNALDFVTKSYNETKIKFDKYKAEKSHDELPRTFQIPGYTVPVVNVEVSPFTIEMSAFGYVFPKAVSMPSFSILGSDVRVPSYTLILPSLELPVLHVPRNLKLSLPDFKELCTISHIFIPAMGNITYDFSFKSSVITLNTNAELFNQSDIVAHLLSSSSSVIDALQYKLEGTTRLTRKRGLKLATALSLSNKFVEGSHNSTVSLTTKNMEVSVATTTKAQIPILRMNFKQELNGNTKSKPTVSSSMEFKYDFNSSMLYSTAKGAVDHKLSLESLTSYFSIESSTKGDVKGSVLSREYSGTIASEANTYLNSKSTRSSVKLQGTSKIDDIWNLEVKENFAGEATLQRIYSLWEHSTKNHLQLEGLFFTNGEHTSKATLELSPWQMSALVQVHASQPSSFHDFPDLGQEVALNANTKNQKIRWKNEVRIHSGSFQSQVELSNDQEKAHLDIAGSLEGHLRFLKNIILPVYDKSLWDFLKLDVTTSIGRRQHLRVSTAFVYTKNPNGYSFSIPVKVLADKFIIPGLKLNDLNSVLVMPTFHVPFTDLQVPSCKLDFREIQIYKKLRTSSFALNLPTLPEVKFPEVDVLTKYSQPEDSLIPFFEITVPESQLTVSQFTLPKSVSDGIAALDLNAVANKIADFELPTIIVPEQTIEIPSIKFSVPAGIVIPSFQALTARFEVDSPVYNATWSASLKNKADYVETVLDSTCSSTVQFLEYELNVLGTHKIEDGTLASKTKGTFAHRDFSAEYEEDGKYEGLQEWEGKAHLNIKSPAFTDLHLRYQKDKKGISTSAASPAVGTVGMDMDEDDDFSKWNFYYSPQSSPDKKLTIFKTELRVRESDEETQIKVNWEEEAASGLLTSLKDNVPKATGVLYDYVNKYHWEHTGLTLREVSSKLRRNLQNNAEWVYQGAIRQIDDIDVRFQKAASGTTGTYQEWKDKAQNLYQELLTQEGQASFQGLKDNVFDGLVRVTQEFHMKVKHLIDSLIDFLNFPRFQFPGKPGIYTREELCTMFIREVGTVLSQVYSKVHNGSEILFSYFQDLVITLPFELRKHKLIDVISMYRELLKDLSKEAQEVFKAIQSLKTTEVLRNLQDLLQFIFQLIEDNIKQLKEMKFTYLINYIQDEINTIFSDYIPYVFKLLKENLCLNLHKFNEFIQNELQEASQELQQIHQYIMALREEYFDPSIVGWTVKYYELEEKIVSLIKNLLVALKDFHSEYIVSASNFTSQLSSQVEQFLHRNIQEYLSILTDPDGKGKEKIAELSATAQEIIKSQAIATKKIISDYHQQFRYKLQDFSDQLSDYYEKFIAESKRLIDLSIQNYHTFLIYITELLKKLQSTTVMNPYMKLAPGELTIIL

IC50 [nM] | SMILES
16 | Cc1cccc(C(=O)Nc2ccc3c(c2)CC(CNS(C)(=O)=O)C3)c1-c1ccc(Cl)cc1 (configuration not stated) [4'-Chloro-6-methyl-biphenyl-2-carboxylic acid [2-(methanesulfonylamino-methyl)-indan-5-yl]-amide]
6.6 | Cc1cccc(C(=O)Nc2ccc3c(c2)CC(NS(C)(=O)=O)C3)c1-c1ccc(Cl)cc1 (configuration not stated) [4'-Chloro-6-methyl-biphenyl-2-carboxylic acid (2-methanesulfonylamino-indan-5-yl)-amide]
10 | COC(=O)NCCC1Cc2ccc(NC(=O)c3cccc(C)c3-c3ccc(C(F)(F)F)cc3)cc2C1 (configuration not stated) [(2-{5-[(6-Methyl-4'-trifluoromethyl-biphenyl-2-carbonyl)-amino]-indan-2-yl}-ethyl)-carbamic acid methyl ester]
270 | O=C(NC1Cc2ccc(NC(=O)c3ccccc3-c3ccc(C(F)(F)F)cc3)cc2C1)c1ccccc1 (configuration not stated) [4'-Trifluoromethyl-biphenyl-2-carboxylic acid (2-benzoylamino-indan-5-yl)-amide]
60 | CS(=O)(=O)NC1Cc2ccc(NC(=O)c3ccccc3-c3ccc(C(F)(F)F)cc3)cc2C1 (configuration not stated) [4'-Trifluoromethyl-biphenyl-2-carboxylic acid (2-methanesulfonylamino-indan-5-yl)-amide]
43 | COC(=O)N1CCN([C@@H]2Cc3ccc(NC(=O)c4cccc(C)c4-c4ccc(C(F)(F)F)cc4)cc3C2)CC1 [4-{5-[(6-Methyl-4'-trifluoromethyl-biphenyl-2-carbonyl)-amino]-indan-2-yl}-piperazine-1-carboxylic acid methyl ester]
1.8 | Cc1cccc(C(=O)Nc2ccc3c(c2)C[C@H](NS(C)(=O)=O)C3)c1-c1ccc(C(F)(F)F)cc1 [6-Methyl-4'-trifluoromethyl-biphenyl-2-carboxylic acid (2-methanesulfonylamino-indan-5-yl)-amide]
5.2 | COC(=O)N[C@@H]1Cc2ccc(NC(=O)c3ccccc3-c3ccc(C(F)(F)F)cc3)cc2C1 [{5-[(4'-Trifluoromethyl-biphenyl-2-carbonyl)-amino]-indan-2-yl}-carbamic acid methyl ester]
15 | COc1cccc(C(=O)Nc2ccc3c(c2)CC(NS(C)(=O)=O)C3)c1-c1ccc(Cl)cc1 (configuration not stated) [4'-Chloro-6-methoxy-biphenyl-2-carboxylic acid (2-methanesulfonylamino-indan-5-yl)-amide]
2 | COc1cccc(C(=O)Nc2ccc3c(c2)CC(NS(=O)(=O)c2ccccc2)C3)c1-c1ccc(Cl)cc1 (configuration not stated) [4'-Chloro-6-methoxy-biphenyl-2-carboxylic acid (2-benzenesulfonylamino-indan-5-yl)-amide]
2.6 | Cc1cc(C)c(-c2ccc(C(F)(F)F)cc2)c(C(=O)Nc2ccc3c(c2)C[C@@H](NS(=O)(=O)c2cccs2)C3)c1 [4,6-Dimethyl-4'-trifluoromethyl-biphenyl-2-carboxylic acid [2-(thiophene-2-sulfonylamino)-indan-5-yl]-amide]
3 | Cc1cccc(C(=O)Nc2ccc3c(c2)CC(NS(=O)(=O)c2cccs2)C3)c1-c1ccc(Cl)cc1 (configuration not stated) [4'-Chloro-6-methyl-biphenyl-2-carboxylic acid [2-(thiophene-2-sulfonylamino)-indan-5-yl]-amide]
